Values after ≈ are worked out from the molar mass of the structure shown. Residues, ends and D or L forms follow the SMILES beside them.
Legend:
[1] = test system: Escherichia coli; experiment: Antimicrobial activity against Escherichia coli ATCC 25922 after 18 to 20 hrs by spectrophotometry; type: functional
[2] = test system: Staphylococcus aureus; experiment: Antimicrobial activity against Staphylococcus aureus ATCC 25923 after 18 to 20 hrs by spectrophotometry; type: functional
[3] = test system: Pseudomonas aeruginosa; experiment: Antimicrobial activity against Pseudomonas aeruginosa ATCC 27853 after 18 to 20 hrs by spectrophotometry; type: functional
[4] = Toxicity against human erythrocytes assessed as hemolysis at 100 uM after 1 hr by spectrophotometry; type: cell-based, Erythrocyte; conditions: read-out: Activity
[5] = test system: Escherichia coli; experiment: Antimicrobial activity against Escherichia coli; type: functional
[6] = test system: Staphylococcus aureus; experiment: Antimicrobial activity against Staphylococcus aureus; type: functional
[7] = test system: Candida albicans; experiment: Antimicrobial activity against Candida albicans; type: functional

Q: With `CC(C)C[C@H](NC(=O)[C@H](CCCNC(=N)N)NC(=O)[C@@H](N)CCCCN)C(=O)N[C@@H](CCCNC(=N)N)C(=O)N[C@@H](CCCNC(=N)N)C(=O)N[C@H](C(=O)N[C@@H](Cc1c[nH]c2ccccc12)C(=O)N[C@@H](CCCNC(=N)N)C(=O)N[C@@H](CCCNC(=N)N)C(=O)N[C@@H](Cc1c[nH]c2ccccc12)C(=O)N[C@@H](CCCNC(=N)N)C(N)=O)C(C)C` (H-KRLRRVWRRWR-NH2) as the compound, how does the MIC [1] read?
A: The MIC was 30 µM (≈ 50 µg/mL).

Q: What about the MIC [2] of the same compound?
A: Its MIC is 5 µM (≈ 8.34 µg/mL).

Q: And the MIC [3]?
A: Its MIC is 20 µM (≈ 33.3 µg/mL).

Q: What about the hemolysis at 1 h, 100 µM [4] of the same compound?
A: The hemolysis at 1 h, 100 µM was 3%.

Q: Which MIC [1] does the source give for `CC(C)[C@H](NC(=O)[C@H](CC(=O)O)NC(=O)[C@H](CO)NC(=O)[C@@H](N)CCCCN)C(=O)N[C@@H](CCCNC(=N)N)C(=O)N[C@@H](CCCNC(=N)N)C(=O)N[C@@H](Cc1c[nH]c2ccccc12)C(=O)N[C@@H](CCCNC(=N)N)C(=O)N[C@@H](CO)C(=O)N[C@@H](CCCNC(=N)N)C(=O)N[C@@H](Cc1ccc(O)cc1)C(N)=O` (H-KSDVRRWRSRY-NH2) here?
A: The MIC was greater than 100 µM.

Q: What about the MIC [2] of the same compound?
A: The MIC was greater than 100 µM.

Q: What about the MIC [3] of the same compound?
A: Its MIC is greater than 100 µM.

Q: With `CC(C)C[C@H](NC(=O)[C@H](CO)NC(=O)[C@@H](N)CCCCN)C(=O)N[C@@H](CCCNC(=N)N)C(=O)N[C@@H](CCCNC(=N)N)C(=O)N[C@H](C(=O)N[C@@H](Cc1c[nH]c2ccccc12)C(=O)N[C@@H](CCCNC(=N)N)C(=O)N[C@@H](CO)C(=O)N[C@@H](Cc1c[nH]c2ccccc12)C(=O)N[C@@H](CCCNC(=N)N)C(N)=O)C(C)C` (H-KSLRRVWRSWR-NH2) as the compound, how does the MIC [1] read?
A: The MIC was 30 µM (≈ 45.9 µg/mL).

Q: And the MIC [2]?
A: Its MIC is 60 µM (≈ 91.7 µg/mL).

Q: And the MIC [3]?
A: Its MIC is 40 µM (≈ 61.2 µg/mL).

Q: What about the hemolysis at 1 h, 100 µM [4] of the same compound?
A: Its hemolysis at 1 h, 100 µM is 0%.

Q: With `CC(C)C[C@H](NC(=O)[C@H](CO)NC(=O)[C@@H](N)CCCCN)C(=O)N[C@H](C(=O)N[C@@H](CCCNC(=N)N)C(=O)N[C@@H](CCCNC(=N)N)C(=O)N[C@@H](Cc1c[nH]c2ccccc12)C(=O)N[C@@H](CCCNC(=N)N)C(=O)N[C@@H](CO)C(=O)N[C@@H](CCCNC(=N)N)C(=O)N[C@@H](Cc1c[nH]c2ccccc12)C(N)=O)C(C)C` (H-KSLVRRWRSRW-NH2) as the compound, how does the MIC [1] read?
A: Its MIC is 30 µM (≈ 45.9 µg/mL).

Q: And the MIC [2]?
A: The MIC was 30 µM (≈ 45.9 µg/mL).

Q: What about the MIC [3] of the same compound?
A: Its MIC is 40 µM (≈ 61.2 µg/mL).

Q: And the hemolysis at 1 h, 100 µM [4]?
A: Its hemolysis at 1 h, 100 µM is 0%.

Q: Which MIC [1] does the source give for `CC(C)C[C@H](NC(=O)[C@H](Cc1c[nH]c2ccccc12)NC(=O)[C@@H](N)CCCCN)C(=O)N[C@@H](CCCNC(=N)N)C(=O)N[C@@H](CCCNC(=N)N)C(=O)N[C@H](C(=O)N[C@@H](Cc1c[nH]c2ccccc12)C(=O)N[C@@H](CCCNC(=N)N)C(=O)N[C@@H](Cc1c[nH]c2ccccc12)C(=O)N[C@@H](Cc1c[nH]c2ccccc12)C(=O)N[C@@H](CCCNC(=N)N)C(N)=O)C(C)C` (H-KWLRRVWRWWR-NH2) here?
A: The MIC was 15 µM (≈ 25.9 µg/mL).

Q: What about the MIC [2] of the same compound?
A: The MIC was 2.5 µM (≈ 4.32 µg/mL).

Q: What about the MIC [3] of the same compound?
A: Its MIC is 20 µM (≈ 34.5 µg/mL).

Q: What about the hemolysis at 1 h, 100 µM [4] of the same compound?
A: The hemolysis at 1 h, 100 µM was 100%.

Q: With `CC[C@H](C)[C@H](NC(=O)CNC(=O)[C@H](CO)NC(=O)[C@H](CCCNC(=N)N)NC(=O)[C@@H](NC(=O)CNC(=O)[C@H](Cc1c[nH]c2ccccc12)NC(=O)[C@@H](N)CC(C)C)[C@@H](C)O)C(=O)N[C@@H](CCC(N)=O)C(=O)N1CCC[C@H]1C(=O)N[C@@H](CCC(=O)O)C(=O)N[C@@H](CCC(N)=O)C(=O)N[C@@H](Cc1cnc[nH]1)C(N)=O` (H-LWGTRSGIQPEQH-NH2) as the compound, how does the MIC [1] read?
A: The MIC was greater than 100 µM.

Q: And the MIC [2]?
A: The MIC was greater than 100 µM.

Q: What about the MIC [3] of the same compound?
A: Its MIC is greater than 100 µM.

Q: What does the source list for `CC(C)[C@H](NC(=O)[C@H](CC(=O)O)NC(=O)[C@H](CO)NC(=O)[C@H](CCCCN)NC(=O)CNC(=O)[C@H](CO)NC(=O)[C@H](CO)NC(=O)[C@H](Cc1cnc[nH]1)NC(=O)[C@@H](N)CCC(N)=O)C(=O)N[C@@H](CCCNC(=N)N)C(=O)N[C@@H](CCCNC(=N)N)C(=O)N[C@@H](Cc1c[nH]c2ccccc12)C(N)=O` (H-QHSSGKSDVRRW-NH2)?
A: MIC [1]: > 100 µM; MIC [2]: > 100 µM; MIC [3]: > 100 µM

Q: With `CC[C@H](C)[C@H](NC(=O)CNC(=O)[C@H](CO)NC(=O)[C@H](CCCNC(=N)N)NC(=O)[C@@H](NC(=O)CNC(=O)[C@H](Cc1c[nH]c2ccccc12)NC(=O)[C@H](CC(C)C)NC(=O)[C@H](CC(=O)O)NC(=O)[C@@H](NC(=O)[C@H](CCCCN)NC(=O)[C@H](CC(C)C)NC(=O)[C@@H](N)CCC(N)=O)C(C)C)[C@@H](C)O)C(N)=O` (H-QLKVDLWGTRSGI-NH2) as the compound, how does the MIC [1] read?
A: The MIC was greater than 100 µM.

Q: And the MIC [2]?
A: Its MIC is greater than 100 µM.

Q: And the MIC [3]?
A: Its MIC is greater than 100 µM.

Q: Which results are given for `CC[C@H](C)[C@H](NC(=O)CNC(=O)[C@H](CO)NC(=O)[C@H](CCCNC(=N)N)NC(=O)[C@@H](NC(=O)CNC(=O)[C@H](Cc1c[nH]c2ccccc12)NC(=O)[C@H](CC(C)C)NC(=O)[C@H](CC(=O)O)NC(=O)[C@@H](NC(=O)[C@H](CCCCN)NC(=O)[C@H](CC(C)C)NC(=O)[C@@H](N)CCC(N)=O)C(C)C)[C@@H](C)O)C(=O)N[C@@H](CCC(N)=O)C(=O)N1CCC[C@H]1C(=O)N[C@@H](CCC(=O)O)C(=O)N[C@@H](CCC(N)=O)C(=O)N[C@@H](Cc1cnc[nH]1)C(=O)N[C@@H](CO)C(=O)N[C@@H](CO)C(=O)NCC(=O)N[C@@H](CCCCN)C(=O)N[C@@H](CO)C(=O)N[C@@H](CC(=O)O)C(=O)N[C@H](C(=O)N[C@@H](CCCNC(=N)N)C(=O)N[C@@H](CCCNC(=N)N)C(=O)N[C@@H](Cc1c[nH]c2ccccc12)C(=O)N[C@@H](CCCNC(=N)N)C(=O)N[C@@H](CO)C(=O)N[C@@H](CCCNC(=N)N)C(=O)N[C@@H](Cc1ccc(O)cc1)C(N)=O)C(C)C` [Ixosin-B-amide] (H-QLKVDLWGTRSGIQPEQHSSGKSDVRRWRSRY-NH2)?
A: MIC [1]: 80 µM (≈ 305 µg/mL); MIC [2]: 80 µM (≈ 305 µg/mL); MIC [3]: > 80 µM; hemolysis at 1 h, 100 µM [4]: 0%; MIC [5]: 15 µg/mL (≈ 3.93 µM); MIC [6]: 2.5 µg/mL (≈ 0.656 µM); MIC [7]: 7.5 µg/mL (≈ 1.97 µM)

Q: What does the source list for `CC1(C)S[C@@H]2[C@H](NC(=O)Cc3ccccc3)C(=O)N2[C@H]1C(=O)O` [PENICILLIN G]?
A: MIC [1]: > 100 µM; MIC [2]: 0.5 µM (≈ 0.167 µg/mL); MIC [3]: > 100 µM
